The test system of one data set is C3H10T1/2 cells. The data set can be described thus: alkaline phosphatase activity in mesenchymal stem cell line. It is filed as cell-based, murine. The conditions noted are these: C3H10T1/2 cells treated with up to 5 mM NMP; data not shown. As for the experimental part:
(§1) MC3T3-E1 cells were grown in an alpha-modified Minimum Essential Medium (Life Technologies, Inc., Grand Island, N.Y.) containing 10% fetal calf serum (Life Technologies, Inc.), 50 μg/ml gentamycin, and 50 μg/ml ascorbic acid. C3H10T1/2 cells were grown in basal medium Eagle, and 50 μg/ml gentamycin. To examine the action of NMP on both cell lines, 1×10^5 cells per well were plated in 6-well plates and NMP subsequently added. Medium exchange was performed after 3 days and alkaline phosphatase (ALP) was determined according to Lowry, O. et al. [J. Biol. Chem. 207 (1954) 19–37]: p-nitrophenol liberated was converted to p-nitrophenylate by adding 400 μl of 1 M NaOH, which was quantitated by measuring the absorbance at 410 nm (epsilon=17500/molxcm). Alkaline phosphatase activity was normalized to total protein and expressed as nmol nitrophenylate generated per min per mg protein.
First, to verify the osteoinductive activity of NMP an embryonic, murine, mesenchymal stem cell line C3H10T1/2 and a preosteoblastic cell line MC3T3-E1 were used and cultured as described above. C3H10T1/2 cells can differentiate into cartilage, bone or adipose cells, whereas MC3T3-E1 produces and releases autologous BMP. Alkaline phosphatase activity was used as a marker for the differentiation into the osteoblastic lineage.

Another data set addresses T1, rhBMP-2 dimers (Homo sapiens, UniProt P12643).
T1 sequence (P12643 283-396): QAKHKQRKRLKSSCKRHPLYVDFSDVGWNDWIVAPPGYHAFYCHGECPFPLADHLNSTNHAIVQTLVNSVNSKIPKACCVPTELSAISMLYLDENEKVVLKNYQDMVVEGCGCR
The data set can be described thus: solubilization of rhBMP-2 pellets in phosphate buffered saline with pyrrolidones. The following applies: 2 h in phosphate buffered saline with increasing amounts of pyrrolidone.

Data set [1] relates to MC3T3-E1 cells. Put plainly: mineralization by Alizarin red-S staining. It is filed as cell-based. The following applies: 4 weeks, 5 Mm glycerol phosphate and 1 μg/ml rhBMP-2, 2.5 Mm NMP vs no NMP. As to the method: Alizarin red-S staining was performed after 4 weeks according to Bodine, P. V. N., et al. [J Bone Mineral Res 11 (1996) 806–819].
The subject of data set [2] is MC3T3-E1 cells. Put plainly: alkaline phosphatase activity as marker of maturation of preosteoblastic cell line. It is filed as cell-based. As to the method:
as §1
First, to verify the osteoinductive activity of NMP an embryonic, murine, mesenchymal stem cell line C3H10T1/2 and a preosteoblastic cell line MC3T3-E1 were used and cultured as described above. C3H10T1/2 cells can differentiate into cartilage, bone or adipose cells, whereas MC3T3-E1 produces and releases autologous BMP. Alkaline phosphatase activity was used as a marker for the differentiation into the osteoblastic lineage. […]

Consider two compounds from US7074412B2, “Pharmaceutical composition” (The University of Zurich, priority 2003, dated 2006).

Procedure for rhBMP-2 dimers: Two to twenty micrograms of the rhBMP protein was lyophilized in a speed-vac to form a solid rhBMP disc. […] After 2 h the protein in the remaining disc was sedimented (22,000×g, 30 min) and the protein content of 20 μl from the supernatant determined by a slot-blot method (Weber, F. E., et al., 2002, supra).

For the compound `CN1CCCC1=O` [NMP, 1-methyl-2-pyrrolidone], in the data set on C3H10T1/2 cells, the alkaline phosphatase activity result was “not increased”. Further, on rhBMP-2 dimers, the “potential to solubilize rhBMP-2, grading in declining order” value is 1-methyl-2-pyrrolidone (NMP)>1-ethyl-2-pyrrolidone (NEP)>2-pyrrolidone (PB)>1-cyclohexyl-2-pyrrolidone (CP). Besides, the “mineralisation (alizarin-S-staining)” value in the data set on MC3T3-E1 cells [1] is “increased mineralisation”. Further, the “maturation determined by alkaline phosphatase activity, concentration dependence” value in the data set on MC3T3-E1 cells [2] (after 6 days, 0 to 5 Mm of NMP) was “increases in a concentration dependent manner”. In addition, the “increase of alkaline phosphatase activity (factor)” value in the data set with MC3T3-E1 cells [2] (low doses of NMP, MC3T3-E1) is listed as 2.5–3.0.
For `O=C1CCCN1` [PB, 2-pyrrolidone], the “potential to solubilize rhBMP-2, grading in declining order” value at rhBMP-2 dimers is given as 1-methyl-2-pyrrolidone (NMP)>1-ethyl-2-pyrrolidone (NEP)>2-pyrrolidone (PB)>1-cyclohexyl-2-pyrrolidone (CP).
